Experimental data taken from ChEMBL document CHEMBL3400001, “Tricyclic 1,5-naphthyridinone oxabicyclooctane-linked novel bacterial topoisomerase inhibitors as broad-spectrum antibacterial agents-SAR of left-hand-side moiety (Part-2)” (Bioorg Med Chem Lett, 2015).
≈ marks a conversion by molar mass, not a printed value. Calls of active or inactive are those of the source. The calls are words filed in the database; no cut-off is given here.

test system: Streptococcus pneumoniae; experiment: Antimicrobial activity against Streptococcus pneumoniae IID554 by micro broth dilution or agar based method; assay type: functional; conditions: Streptococcus pneumoniae, IID554; read-out: MIC

Structure (SMILES) | MIC
COc1ccc2ncc(F)c(C[C@H](O)C34CCC(NCc5ccc6c(n5)NC(=O)CO6)(CC3)CO4)c2n1 | 0.05 µg/mL (≈ 0.0981 µM)
COc1cnc2ccc(=O)n3c2c1[C@@](O)(CC12CCC(NCc4ccc5c(n4)NC(=O)CO5)(CC1)CO2)C3 | 32 µg/mL (≈ 61.6 µM)
O=C1COc2ccc(CNC34CCC(C[C@]5(O)Cn6c(=O)ccc7nc(Cl)c(F)c5c76)(CC3)OC4)nc2N1 | 8 µg/mL (≈ 14.8 µM)
O=C1COc2ccc(CNC34CCC(C[C@@]5(O)Cn6c(=O)ccc7ncc(F)c5c76)(CC3)OC4)nc2N1 | 4 µg/mL (≈ 7.88 µM)
COc1cnc2ccc(=O)n3c2c1[C@](O)(CC12CCC(NCc4ccc5c(n4)NC(=O)CO5)(CC1)CO2)C3 | 8 µg/mL (≈ 15.4 µM)
O=C1COc2ccc(CNC34CCC(CC5(F)Cn6c(=O)ccc7ncc(F)c5c76)(CC3)OC4)nc2N1 (racemic) | 0.5 µg/mL (≈ 0.981 µM)

test system: Staphylococcus aureus; experiment: Antimicrobial activity against Staphylococcus aureus Smith by micro broth dilution or agar based method; assay type: functional; conditions: Staphylococcus aureus, Smith; read-out: MIC

Structure (SMILES) | MIC
COc1ccc2ncc(F)c(C[C@H](O)C34CCC(NCc5ccc6c(n5)NC(=O)CO6)(CC3)CO4)c2n1 | 0.02 µg/mL (≈ 0.0393 µM)
COc1cnc2ccc(=O)n3c2c1[C@@](O)(CC12CCC(NCc4ccc5c(n4)NC(=O)CO5)(CC1)CO2)C3 | 8 µg/mL (≈ 15.4 µM)
O=C1COc2ccc(CNC34CCC(C[C@]5(O)Cn6c(=O)ccc7nc(Cl)c(F)c5c76)(CC3)OC4)nc2N1 | 4 µg/mL (≈ 7.38 µM)
O=C1COc2ccc(CNC34CCC(C[C@@]5(O)Cn6c(=O)ccc7ncc(F)c5c76)(CC3)OC4)nc2N1 | 2 µg/mL (≈ 3.94 µM)
COc1cnc2ccc(=O)n3c2c1[C@](O)(CC12CCC(NCc4ccc5c(n4)NC(=O)CO5)(CC1)CO2)C3 | 8 µg/mL (≈ 15.4 µM)
O=C1COc2ccc(CNC34CCC(CC5(F)Cn6c(=O)ccc7ncc(F)c5c76)(CC3)OC4)nc2N1 (racemic) | 0.25 µg/mL (≈ 0.491 µM)

test system: Haemophilus influenzae; experiment: Antimicrobial activity against Haemophilus influenzae ATCC 49247 by micro broth dilution or agar based method; assay type: functional; conditions: not given

Structure (SMILES) | MIC
COc1ccc2ncc(F)c(C[C@H](O)C34CCC(NCc5ccc6c(n5)NC(=O)CO6)(CC3)CO4)c2n1 | 0.5 µg/mL (≈ 0.981 µM)

test system: Enterococcus faecium; experiment: Antimicrobial activity against vancomycin-resistant Enterococcus faecium A2373 expressing VanA by micro broth dilution or agar based method; assay type: functional; conditions: Enterococcus faecium, A2373; read-out: MIC

Structure (SMILES) | MIC
COc1ccc2ncc(F)c(C[C@H](O)C34CCC(NCc5ccc6c(n5)NC(=O)CO6)(CC3)CO4)c2n1 | 0.5 µg/mL (≈ 0.981 µM)
COc1cnc2ccc(=O)n3c2c1[C@@](O)(CC12CCC(NCc4ccc5c(n4)NC(=O)CO5)(CC1)CO2)C3 | 32 µg/mL (≈ 61.6 µM)
O=C1COc2ccc(CNC34CCC(C[C@]5(O)Cn6c(=O)ccc7nc(Cl)c(F)c5c76)(CC3)OC4)nc2N1 | 32 µg/mL (≈ 59 µM)
O=C1COc2ccc(CNC34CCC(C[C@@]5(O)Cn6c(=O)ccc7ncc(F)c5c76)(CC3)OC4)nc2N1 | 32 µg/mL (≈ 63.1 µM)
COc1cnc2ccc(=O)n3c2c1[C@](O)(CC12CCC(NCc4ccc5c(n4)NC(=O)CO5)(CC1)CO2)C3 | 32 µg/mL (≈ 61.6 µM)
O=C1COc2ccc(CNC34CCC(CC5(F)Cn6c(=O)ccc7ncc(F)c5c76)(CC3)OC4)nc2N1 (racemic) | 4 µg/mL (≈ 7.85 µM)

test system: Enterococcus faecalis; experiment: Antimicrobial activity against Enterococcus faecalis ATCC 29212 MB by micro broth dilution or agar based method; assay type: functional; conditions: Enterococcus faecalis, ATCC 29212 MB; read-out: MIC

Structure (SMILES) | MIC
COc1ccc2ncc(F)c(C[C@H](O)C34CCC(NCc5ccc6c(n5)NC(=O)CO6)(CC3)CO4)c2n1 | 0.5 µg/mL (≈ 0.981 µM)
COc1cnc2ccc(=O)n3c2c1[C@@](O)(CC12CCC(NCc4ccc5c(n4)NC(=O)CO5)(CC1)CO2)C3 | 32 µg/mL (≈ 61.6 µM)
O=C1COc2ccc(CNC34CCC(C[C@]5(O)Cn6c(=O)ccc7nc(Cl)c(F)c5c76)(CC3)OC4)nc2N1 | 16 µg/mL (≈ 29.5 µM)
O=C1COc2ccc(CNC34CCC(C[C@@]5(O)Cn6c(=O)ccc7ncc(F)c5c76)(CC3)OC4)nc2N1 | 8 µg/mL (≈ 15.8 µM)
COc1cnc2ccc(=O)n3c2c1[C@](O)(CC12CCC(NCc4ccc5c(n4)NC(=O)CO5)(CC1)CO2)C3 | 32 µg/mL (≈ 61.6 µM)
O=C1COc2ccc(CNC34CCC(CC5(F)Cn6c(=O)ccc7ncc(F)c5c76)(CC3)OC4)nc2N1 (racemic) | 2 µg/mL (≈ 3.93 µM)

test system: Pseudomonas aeruginosa; experiment: Antimicrobial activity against Pseudomonas aeruginosa PAO1 by micro broth dilution or agar based method; assay type: functional; conditions: Pseudomonas aeruginosa, PAO1; read-out: MIC

Structure (SMILES) | MIC
COc1ccc2ncc(F)c(C[C@H](O)C34CCC(NCc5ccc6c(n5)NC(=O)CO6)(CC3)CO4)c2n1 | 8 µg/mL (≈ 15.7 µM)
COc1cnc2ccc(=O)n3c2c1[C@@](O)(CC12CCC(NCc4ccc5c(n4)NC(=O)CO5)(CC1)CO2)C3 | 32 µg/mL (≈ 61.6 µM)
O=C1COc2ccc(CNC34CCC(C[C@]5(O)Cn6c(=O)ccc7nc(Cl)c(F)c5c76)(CC3)OC4)nc2N1 | 32 µg/mL (≈ 59 µM)
O=C1COc2ccc(CNC34CCC(C[C@@]5(O)Cn6c(=O)ccc7ncc(F)c5c76)(CC3)OC4)nc2N1 | 32 µg/mL (≈ 63.1 µM)
COc1cnc2ccc(=O)n3c2c1[C@](O)(CC12CCC(NCc4ccc5c(n4)NC(=O)CO5)(CC1)CO2)C3 | 32 µg/mL (≈ 61.6 µM)
O=C1COc2ccc(CNC34CCC(CC5(F)Cn6c(=O)ccc7ncc(F)c5c76)(CC3)OC4)nc2N1 (racemic) | 32 µg/mL (≈ 62.8 µM)

test system: Escherichia coli; experiment: Antimicrobial activity against Escherichia coli ATCC 25922 by micro broth dilution or agar based method; assay type: functional; conditions: Escherichia coli, ATCC 25922; read-out: MIC

Structure (SMILES) | MIC
COc1ccc2ncc(F)c(C[C@H](O)C34CCC(NCc5ccc6c(n5)NC(=O)CO6)(CC3)CO4)c2n1 | 2 µg/mL (≈ 3.93 µM)
COc1cnc2ccc(=O)n3c2c1[C@@](O)(CC12CCC(NCc4ccc5c(n4)NC(=O)CO5)(CC1)CO2)C3 | 32 µg/mL (≈ 61.6 µM)
O=C1COc2ccc(CNC34CCC(C[C@]5(O)Cn6c(=O)ccc7nc(Cl)c(F)c5c76)(CC3)OC4)nc2N1 | 32 µg/mL (≈ 59 µM)
O=C1COc2ccc(CNC34CCC(C[C@@]5(O)Cn6c(=O)ccc7ncc(F)c5c76)(CC3)OC4)nc2N1 | 16 µg/mL (≈ 31.5 µM)
COc1cnc2ccc(=O)n3c2c1[C@](O)(CC12CCC(NCc4ccc5c(n4)NC(=O)CO5)(CC1)CO2)C3 | 32 µg/mL (≈ 61.6 µM)
O=C1COc2ccc(CNC34CCC(CC5(F)Cn6c(=O)ccc7ncc(F)c5c76)(CC3)OC4)nc2N1 (racemic) | 4 µg/mL (≈ 7.85 µM)

test system: Staphylococcus aureus; experiment: Antimicrobial activity against Staphylococcus aureus infected in mouse model of bacteremia at 50 mg/kg, po; assay type: functional, organism-based; parameters: dose 50 mg/kg; conditions: not given

Structure (SMILES) | Activity
O=C1COc2ccc(CNC34CCC(C[C@@]5(O)Cn6c(=O)ccc7ncc(F)c5c76)(CC3)OC4)nc2N1 | inactive

test system: Moraxella catarrhalis; experiment: Antimicrobial activity against Moraxella catarrhalis ATCC 25238 by micro broth dilution or agar based method; assay type: functional; conditions: not given

Structure (SMILES) | MIC
COc1ccc2ncc(F)c(C[C@H](O)C34CCC(NCc5ccc6c(n5)NC(=O)CO6)(CC3)CO4)c2n1 | 0.015 µg/mL (≈ 0.0294 µM)
O=C1COc2ccc(CNC34CCC(C[C@]5(O)Cn6c(=O)ccc7nc(Cl)c(F)c5c76)(CC3)OC4)nc2N1 | 4 µg/mL (≈ 7.38 µM)

test system: Staphylococcus aureus; experiment: Antimicrobial activity against Staphylococcus aureus infected in mouse model of bacteremia at 50 mg/kg, iv; assay type: functional, organism-based; parameters: dose 50 mg/kg; conditions: not given

Structure (SMILES) | Activity
O=C1COc2ccc(CNC34CCC(C[C@@]5(O)Cn6c(=O)ccc7ncc(F)c5c76)(CC3)OC4)nc2N1 | inactive

test system: Acinetobacter baumannii; experiment: Antimicrobial activity against Acinetobacter baumannii IID876 by micro broth dilution or agar based method; assay type: functional; conditions: Acinetobacter baumannii, IID876; read-out: MIC

Structure (SMILES) | MIC
COc1ccc2ncc(F)c(C[C@H](O)C34CCC(NCc5ccc6c(n5)NC(=O)CO6)(CC3)CO4)c2n1 | 0.5 µg/mL (≈ 0.981 µM)
COc1cnc2ccc(=O)n3c2c1[C@@](O)(CC12CCC(NCc4ccc5c(n4)NC(=O)CO5)(CC1)CO2)C3 | 32 µg/mL (≈ 61.6 µM)
O=C1COc2ccc(CNC34CCC(C[C@]5(O)Cn6c(=O)ccc7nc(Cl)c(F)c5c76)(CC3)OC4)nc2N1 | 32 µg/mL (≈ 59 µM)
O=C1COc2ccc(CNC34CCC(C[C@@]5(O)Cn6c(=O)ccc7ncc(F)c5c76)(CC3)OC4)nc2N1 | 32 µg/mL (≈ 63.1 µM)
COc1cnc2ccc(=O)n3c2c1[C@](O)(CC12CCC(NCc4ccc5c(n4)NC(=O)CO5)(CC1)CO2)C3 | 32 µg/mL (≈ 61.6 µM)
O=C1COc2ccc(CNC34CCC(CC5(F)Cn6c(=O)ccc7ncc(F)c5c76)(CC3)OC4)nc2N1 (racemic) | 1 µg/mL (≈ 1.96 µM)
